“Also recorded” adds a separate entry of the source.
Columns and labels:
[1] = tested on: angiotensin II (AII)-induced AAA; test: AII-induced AAA mouse model, post-treatment; format: in vivo; conditions: injection every other day for two weeks, FIG. 2E
senescent SMCs (SNC) = test: Caspase 3 activity assay on senescent SMCs; format: cell-based; conditions: p53 inhibition by pifithirin-α, FIG. 2J
Procedure: (§1) FIGS. 2A-2L. (a) Cytotoxicity assay of normal smooth muscle cells (NS) and senescent smooth muscle cells (SMCs). Replicative senescent SMCs (RS) and premature senescent SMCs, stimulated by H2O2 (HP), arsenic (Ars), and Nutlin 3a (Nut) treatment were treated with βHB, s-βHB, and ABT-737. (b) Flow cytometry analysis of apoptosis by βHB or s-βHB in radiation (10 Gy)-induced senescent SMC. (c) Quantitation of apoptotic cell and senescent cell after treating βHB and s-βHB in radiation-induced senescent SMC. (d) Representative aorta image of AII-infused mice with post-treatment of ABT-737, βHB and s-βHB. (e) External diameter of abdominal aorta infused with AII and post-treated with ABT-737 βHB and s-βHB. (f) SA-βGal activity assay of the whole aorta infused with AII, and post-treated with ABT-737, KD, or KE. (g) Quantitation of senescent area on aorta of AII-infused mice, and post-treated with KD, KE and ABT-737. (h) TUNEL assay on the abdominal aorta of AII infused mice, and treated with ABT-737, βHB, or s-βHB. SM-α Actin (SMA) and DAPI are co-stained after TUNEL reaction. (i) Caspase 3 activity assay on normal SMCs (NC) treated with βHB, or s-βHB, and ABT-737 comparing to normal cells pretreated with Nutlin-3a. (j) Caspase 3 activity assay on senescent SMCs (SNC) treated with βHB, or s-βHB, and ABT-737 compared to senescent cells pretreated with pifithrin-α. […]

[2] = tested on: lysine β-hydroxybutyrylation (KβHB); test: Immunoblotting of lysine β-hydroxybutyrylation (KβHB) in SMCs; format: cell-based; conditions: FIG. 15A
Excerpt: FIGS. 15A-15B show immunoblotting of lysine β-hydroxybutyrylation (KβHB) on whole cell lysate (WCL) and fractionated lysate. (b) Immunofluorescent staining of SMA, KβHB, and DAPI on abdominal aorta.
Since epigenetic regulation directly affects the activity of transcriptional factors, such as Oct4, we evaluated if βHB is related to histone remodeling. βHB is a substrate of acyltransferase resulting in β-hydroxybutyrylation, a unique posttranslational modification that controls protein activity or gene expression. We hypothesize that β-hydroxybutyrylation on histone induces histone remodeling facilitating cellular reprogramming. To determine that β-hydroxybutyrylation (KβHB) is observed in senescent SMCs or aneurysms, we applied a specific antibody detecting KβHB modified protein. […] Together, it is supposed that β-hydroxybutyryl histone triggers the reprogramming process of senescent SMCs by regulating Oct4, which is overexpressed in aneurysms.

senescent SMCs [3] = test: Flow cytometry (FACS) apoptosis analysis, PI and Annexin V; format: cell-based; conditions: FIGS. 2B, 2C
Procedure: as §1

[4] = tested on: Oct4 overexpressed senescent SMCs; test: Oct4 overexpressed senescent SMCs (SA β-Gal, Western blot); format: cell-based
Excerpt: FIGS. 14A-14B show (a) SA β-Gal activity on Oct4 overexpressed SMCs with or without βHB treatment (2 days). Irradiated SMCs were infected by Lentivirus containing Crispr-dCas9-VP64_Oct4 plasmid prior to treating βHB. The arrow indicates localized senescent cell mass. (b) Western blot analysis after lentivirus (Crispr-dCas9-VP64_Oct4) infection into senescent SMCs without βHB treatment for 1 day or 2 days.
We proposed that Oct4 upregulation in senescence forms senescent spheroid-like cell mass and asymmetric configuration of aneurysms. To validate our central hypothesis, we overexpressed Oct4 in senescent SMCs using the CRISPR-dCas9-VP64 system to determine the role of Oct4. […] Localized increase of senescence may be highly associated with asymmetric dilation of aneurysms. […] We supposed that βHB prevents or reverses Oct4-induced senescence of SMCs, consequently reducing the size of aneurysms. To investigate the role of βHB in aneurysms, we assess the possibility of cellular reprogramming in senescent SMCs in the condition of Oct4 overexpression. […] In particular, a moderate increase of FAP (Fibroblast Activation Protein) provides a potential for reprogramming resulting in transdifferentiation of SMCs to myofibroblast. Recovered SM22 expression in Oct4 overexpressed senescent SMCs supposed that βHB converts the Oct4 function in dedifferentiation into a reprogramming-related role. We considered an βHB-induced epigenetic alteration of senescent cells contributing to Oct4-dependent cellular reprogramming based on this unique observation.

normal SMCs (NC) = test: Caspase 3 activity assay on normal SMCs; format: cell-based; conditions: FIG. 2I
Procedure: FIGS. 2A-2L. (a) Cytotoxicity assay of normal smooth muscle cells (NS) and senescent smooth muscle cells (SMCs). Replicative senescent SMCs (RS) and premature senescent SMCs, stimulated by H2O2 (HP), arsenic (Ars), and Nutlin 3a (Nut) treatment were treated with βHB, s-βHB, and ABT-737. (b) Flow cytometry analysis of apoptosis by βHB or s-βHB in radiation (10 Gy)-induced senescent SMC. (c) Quantitation of apoptotic cell and senescent cell after treating βHB and s-βHB in radiation-induced senescent SMC. (d) Representative aorta image of AII-infused mice with post-treatment of ABT-737, βHB and s-βHB. (e) External diameter of abdominal aorta infused with AII and post-treated with ABT-737 βHB and s-βHB. (f) SA-βGal activity assay of the whole aorta infused with AII, and post-treated with ABT-737, KD, or KE. (g) Quantitation of senescent area on aorta of AII-infused mice, and post-treated with KD, KE and ABT-737. (h) TUNEL assay on the abdominal aorta of AII infused mice, and treated with ABT-737, βHB, or s-βHB. SM-α Actin (SMA) and DAPI are co-stained after TUNEL reaction. (i) Caspase 3 activity assay on normal SMCs (NC) treated with βHB, or s-βHB, and ABT-737 comparing to normal cells pretreated with Nutlin-3a. (j) Caspase 3 activity assay on senescent SMCs (SNC) treated with βHB, or s-βHB, and ABT-737 compared to senescent cells pretreated with pifithrin-α. (k) Western blot analysis for p53 and puma expression on abdominal aorta tissue from mice treated with AII or KE. (I) Immunohistochemistry staining for puma expression on abdominal aorta infused by AII and post-treated with KE.
To overcome the anti-apoptotic barrier of senescence cells, senolytics usually target p53/Bcl2 cascades. Moreover, p53 is considered as a barrier to prevent apoptosis in senescence cells. Therefore, it was investigated if βHB-mediated apoptosis is p53 dependent. […] To further validate p53 dependent apoptosis on AAA, p53 activation and puma expression were investigated. […] In addition, inflammatory response accompanying the apoptosis of senescence cells was observed specifically in the abdominal aorta tissue, while systemic inflammation decreased during ketotherapy (FIGS. 10A-F). […] Ketotherapy can lower the blood pressure caused by AII infusion, which is not the case with ABT-737 (FIGS. 10H-J).

senescent SMCs [5] = test: Cellular viability (cytotoxicity) assay of senescent and normal SMCs; format: cell-based; conditions: premature senescence by H2O2, Arsenite or Nutlin 3a, FIG. 2A
Procedure: as §1, with “reaction.” for “reaction. (i) Caspase 3 activity assay on normal SMCs (NC) treated with βHB, or s-βHB, and ABT-737 comparing to normal cells pretreated with Nutlin-3a. (j) Caspase 3 activity assay on senescent SMCs (SNC) treated with βHB, or s-βHB, and ABT-737 compared to senescent cells pretreated with pifithrin-α.”
The clearance of senescent cells that accumulate during the aneurysm development is required to reduce the volume of aneurysm plaque. Thus, the senotherapeutic potential of βHB to reverse AAA progression was evaluated. […]

C[C@@H](O)CC(=O)O [βHB, (R)-3-Hydroxybutyrate]
external diameter of the abdominal aorta [1]: significantly reduced
apoptosis with p53 inhibition (senescent SMCs (SNC)): did not induce apoptosis
KβHB modified proteins, Western blot [2]: increases KβHB modified proteins
apoptosis of senescent SMCs (senescent SMCs [3]): induced targeted apoptosis of senescent SMCs
SM22 and β-galactosidase in Oct4 overexpressed-senescent cells ([4]; Oct4 overexpressed, FIG. 14B): recovers SMC maturation marker (SM22) and reduced senescence marker (β-galactosidase)
localized senescence, SA β-Gal activity ([4]; Oct4 overexpression by CRISPR-dCas9-VP64, FIG. 14A): significantly reverses or prevents the development of localized senescence
SM22 in senescent SMCs without Oct4 activation ([4]; without Oct4 activation, FIG. 14B): does not recover SM22
apoptosis in normal cells after p53 stabilization (normal SMCs (NC); after p53 stabilization by Nutlin 3a): triggers apoptosis
apoptosis in normal cells (NC) (normal SMCs (NC); without Nutlin 3a): did not induce apoptosis
number of senescent SMCs versus normal SMCs (senescent SMCs [5]): selectively reduced the number of senescent SMCs and not normal SMCs; also recorded: slightly reduced

Reference: patent US20240342121A1, “THE USE OF BETA-HYDROXYBUTYRATES FOR THE TREATMENT OR PREVENTION OF ANEURYSMS AND DISSECTIONS” (priority 2021, published 2024)
